Measurements taken from a melting point compilation (Tetko et al.; mined from patent text by program, amines drawn as free bases though some values may be those of a salt).

`COc1ccc2[nH]cc(-c3cc4c(OC)ncnc4[nH]3)c2c1` and `Nc1cc2c(Nc3ccc(F)c(Br)c3)ncnc2cn1` cannot be ordered by melting point: greater than 260 °C for the first, 269 to 271 °C for the second.

Compared with `Oc1ccc(NC2CCc3cc(O)ccc3C2)cc1` (configuration not stated), `CN1CCC(C(=O)Nc2ccc(CN(C)C3CCOCC3)cc2)=Cc2cc(Br)ccc21` is lower in melting point: 193 to 195 °C for the first, 62 to 64 °C for the second.

Compared with `O=c1[nH]c2ccc(C3=NOC(CN4CCC(C(O)c5ccc(F)cc5)CC4)C3)cc2o1` (configuration not stated), `O=c1[nH]c2ccc(CCCNCC[C@H]3CC[C@H](c4ccc(F)cc4)CC3)cc2o1` is lower in melting point: 186 to 191 °C for the first, 99 to 109 °C for the second.

First: Cc1cc2c(c3ccc(=O)[nH]c13)OC(CNC(=O)[C@@H]1CCCN1C(=O)OCc1ccccc1)C2 (some centres not stated)
Second: CCC(=S)NC[C@H]1CN(c2ccc(N3CCN(C(=O)COc4ccccc4)CC3)c(F)c2)C(=O)O1
The melting point of the first is lower: 131 to 132 °C for the first, 171 to 172 °C for the second.

First: CCCCCCCCCCCCS(=O)(=O)N1CCCSC1=C(Br)[N+](=O)[O-]
Second: CCCCCCCCCCCCCCc1ccc(O)c(C(C)=O)c1
The melting point of the first is higher: 70 to 71 °C for the first, 38.5 to 39.5 °C for the second.

Compared with `O=C(O)CC1(c2ccc(F)cc2)CNC(=O)C1` (configuration not stated), `COC(=O)CC1CC(=O)Nc2ccccc21` (configuration not stated) is lower in melting point: 174 to 176 °C for the first, 115 to 116 °C for the second.

First: CN1CCN(c2n[nH]c3ccc(Cl)cc23)CC1
Second: Cc1cc(O)ccc1C(=O)N1CCN(C)CC1
The melting point of the first is higher: 172 to 174 °C for the first, 167 to 168 °C for the second.

First: CNC(=O)c1cccc(NC(=O)Cc2cc(OC)c(OC)c(OC)c2)c1
Second: COc1cc(C(=O)CC(=O)C(C)(C)C)cc(OC)c1OC
The melting point of the first is higher: 81 to 82 °C for the first, 67.3 to 68.4 °C for the second.

Compared with `CCc1cc2c(cc1C(C)=O)CC(NC(=O)C(F)(F)F)C2` (configuration not stated), `Cc1cc(OCCNC(=O)C2Cc3ccccc3N2S(=O)(=O)c2ccc(-c3cccc(C(F)(F)F)c3)cc2)ccc1CC(=O)O` (configuration not stated) is lower in melting point: 124 to 127 °C for the first, 87 to 90 °C for the second.

First: OCC1(CO)C=CC(c2ccccc2)=CC1
Second: BrCc1cccc(-c2ccccc2)c1
The melting point of the first is higher: 187 to 188 °C for the first, 54 to 56 °C for the second.

First: CC(C)(C)C(=O)C=Cc1ccc(Cl)cc1
Second: CC(C)(C)C(F)(F)c1ccc(C(N)=O)cc1
The melting point of the first is lower: 83 to 84 °C for the first, 128 to 132 °C for the second.

Compared with `O=C(c1ccc(-c2ccn(C(=O)c3ccc(F)cc3Cl)n2)cc1)N1Cc2cccn2Cc2ccccc21`, `O=C(c1ccccc1)c1ccc(-c2ccc(-c3ccc(Cl)cc3)s2)s1` is higher in melting point: 150 to 157 °C for the first, 165 to 175 °C for the second.

Compared with `CCOc1cc([C@@H](CS(C)(=O)=O)N2Cc3cccc(NCC4CC4)c3C2=O)ccc1OC`, `CCCCN1CCc2ccccc2C1CNC(=O)c1cc(OC)c(OC)c(OC)c1` (configuration not stated) is lower in melting point: 147 to 149 °C for the first, 81 to 83 °C for the second.

Compared with `Cc1ccc(Nc2nc(-c3ccccc3)c(C(=O)c3sc(Nc4ccc(C)cc4)nc3-c3ccccc3)s2)cc1`, `CN1C(=O)[C@H](NC(=O)CCNc2ccccc2)N=C(c2ccccc2)c2ccccc21` is lower in melting point: greater than 285 °C for the first, 218 to 221 °C for the second.

Compared with `COC(=O)c1ccc(Cl)c(-n2nn[nH]c2=O)c1Cl`, `CC(C)(C)NS(=O)(=O)c1cc(C(=O)Cl)ccc1Cl` is lower in melting point: 192 to 193 °C for the first, 97 °C for the second.

Compared with `CCOC(=O)c1cn2c3c(c(F)c(F)cc3c1=O)OCC2COC(=O)c1cc([N+](=O)[O-])cc([N+](=O)[O-])c1` (configuration not stated), `Nc1cccnc1C1CCN(c2cc3c(cc2F)c(=O)c(C(=O)O)cn3C2CC2)C1` (configuration not stated) is higher in melting point: 240 to 242 °C for the first, greater than 270 °C for the second.

Going from `COc1cc(-c2nc3ccccc3n2Cc2cccc(Cl)c2)cc(OC)c1OC` to `COc1cc(CCCN(C)Cc2ccc(OC)c(OC)c2)ccc1NC(=O)c1cccc2c(=O)c3cccc(C)c3[nH]c12`, the melting point rises from 83 °C to 111 °C.

First: CCCO[Si](C)(CCN=C(O)C1(C)C(C)(C(=O)O)C(C)(C(=O)O)C1(C)C(O)=NCC[Si](C)(OCCC)OCCC)OCCC (configuration not stated)
Second: COC(=O)CCON1C(C)(C)CC(OCc2ccc(COC3CC(C)(C)N(OCCC(=O)OC)C(C)(C)C3)cc2)CC1(C)C
The melting point of the first is higher: 151 °C for the first, 84 to 85 °C for the second.

First: CCCc1c(OCCCCCOc2ccccc2CCC(=O)O)ccc2c1OCC2=O
Second: CCCCC(=O)c1c(-c2ccc3c(C)c(OCC(=O)O)ccc3c2)oc2ccccc12
The melting point of the first is lower: 101 to 102 °C for the first, 153 to 155 °C for the second.

Compared with `Oc1ccc(-c2c3ccccc3cc3sc4ccccc4c23)cc1O`, `O=P(Oc1ccccc1O)(Oc1ccccc1O)c1ccccc1` is higher in melting point: 188 to 189 °C for the first, 270 °C for the second.

Compared with `CO[C@]1(c2csc(S(=O)(=O)c3ccc4c(c3)CC/C4=N\O)c2)CCO[C@@H]1C` (racemic), `COc1ccc2c(c1)CCC1C2=CCC2(C)C(=O)CCC12` (configuration not stated) is lower in melting point: 170 to 172 °C for the first, 139 to 143 °C for the second.

First: Cc1cc(C)nc(NC#N)n1
Second: Cn1cc(C#N)nc1-c1ncc[nH]1
The melting point of the first is lower: 205 °C for the first, 238 to 239 °C for the second.

Compared with `NNc1ccc(CS(N)(=O)=O)cc1`, `CCOC(=O)CC(Nc1ccccc1)c1ccccc1` (racemic) is lower in melting point: 156 to 158 °C for the first, 87 °C for the second.

Compared with `CN(C)c1ccc(-c2cc3nccnc3[nH]2)cc1CCC(=O)O`, `O=C(Nc1ccncc1)c1cc2ccnc(Cl)c2[nH]1` is higher in melting point: 269 to 271 °C for the first, greater than 320 °C for the second.

First: O=C(Nc1ccc(OCCO)cc1)c1ccc(N2CCNCC2)cc1
Second: N#Cc1ccc(C(=O)Nc2ccc(OCCN3CCOCC3)c3ccccc23)cc1
The melting point of the first is higher: greater than 260 °C for the first, 213 to 214 °C for the second.

First: CN1CC=C(C2=C(C#N)C(c3cccc(C#N)c3Br)c3c[nH]nc3N2)CC1 (configuration not stated)
Second: COc1cc2c(Nc3ccc(Sc4nccn4C)c(Cl)c3)c(C#N)cnc2cc1N1CCC(N2CCN(C)CC2)CC1
The melting point of the first is lower: 233 °C for the first, 235 to 237 °C for the second.

First: Nc1c(Cl)cc(C(O)CNCCCCCC(=O)OCCOc2ccccc2)cc1Cl (configuration not stated)
Second: Nc1c(CCO)cccc1C(O)c1ccccc1 (configuration not stated)
The melting point of the first is lower: 46 to 47 °C for the first, 101 °C for the second.

`O=C1Nc2ccc(F)c(F)c2C(=O)N2CCC[C@@H]12` and `O=C1Nc2cc(Cl)ccc2C(=O)C1c1ccncc1` (configuration not stated) cannot be ordered by melting point: greater than 250 °C for the first, greater than 330 °C for the second.

Compared with `CC1=Nc2c(C)nn(C)c2C2=NC(C)C(C)N12` (configuration not stated), `CCn1nc(C)c2c(Cl)cc(-c3ccccc3)nc21` is lower in melting point: 280 °C for the first, 101 to 103 °C for the second.

Compared with `CCOC(=O)c1ccc(C2=CCCCC2C(C)(C)C)cc1` (configuration not stated), `C#Cc1ccc(C(=O)OCC)cn1` is lower in melting point: 50 °C for the first, 35 °C for the second.

Compared with `O=C1NC(=O)C(Sc2ccccn2)=C1Sc1ccccn1`, `O=C1CC2(C(=O)N1)C(=O)N1c3ccccc3Sc3cccc2c31` (configuration not stated) is higher in melting point: 70 to 72 °C for the first, greater than 300 °C for the second.

First: O=C1c2ccccc2C(F)(F)C(F)(F)c2ccccc21
Second: C[C@H]1[C@H](NSc2ccccc2[N+](=O)[O-])C(=O)N1OCc1ccccc1
The melting point of the first is lower: 70 to 75 °C for the first, 97 to 100 °C for the second.

Compared with `O=c1c(CO)csc2ccc3ccccc3c12`, `C=C=COc1ccc2cc3ccccc3cc2c1` is lower in melting point: 158 to 159 °C for the first, 90.3 to 95.6 °C for the second.

`CCC(C)(C)c1c[nH]cn1` and `CCC(=O)Nc1cc(C(C)(C)C)on1` fall in the same range of melting point: 95 to 96 °C for the first, 95 to 96 °C for the second.

Compared with `CC(C)(C)OC(=O)N1CCC(CCOS(C)(=O)=O)CC1`, `CC(C)(C)OC(=O)C[C@@H](CC1CCCC1)C(=O)N1CCCCC1` is lower in melting point: 60 to 63 °C for the first, 38 to 40 °C for the second.

Compared with `CC(=O)CN1C(=O)COc2ccccc21`, `CC(C)(C)CCNC(=O)CN1C(=O)C2(COc3cc4c(cc32)CCO4)c2ccccc21` (configuration not stated) is higher in melting point: 74 to 76 °C for the first, 161 to 163 °C for the second.

First: CCCc1nc2c(N)nc3ccccc3c2n1CCCCC(=O)N(C)OC
Second: CCCc1nc(C)cn1-c1cc(F)ccc1N
The melting point of the first is higher: 150 to 151 °C for the first, 38 to 42 °C for the second.

First: CC(C)(C)c1cc(CCc2ccccc2NC(=O)NC2CCN(CCc3ccc(F)cc3)CC2)cc(C(C)(C)C)c1O
Second: CCOC(OCC)(c1ccc(F)cc1)C1CCN(CCc2c(C)nc3scc(C)n3c2=O)CC1
The melting point of the first is higher: 117 to 119 °C for the first, 116 °C for the second.

Compared with `Nc1nc(Cl)c2ncn(C3CC(F)C(CO)O3)c2n1` (configuration not stated), `NC(=O)c1nccn1C1Cc2ccc(Cl)cc2C1=O` (configuration not stated) is higher in melting point: 172 °C for the first, 190 °C for the second.

First: CC(C)(O)c1cc(C(F)(F)F)cc(C(F)(F)F)c1
Second: N#Cc1nc(-c2cnn(-c3c(Cl)cc(C(F)(F)F)cc3Cl)n2)[nH]c1C#N
The melting point of the first is lower: 59 to 60 °C for the first, 192 to 194 °C for the second.

First: CCCCNCCCNCCCCCCCCNCCCNCCCC
Second: C=CC(=O)N(CCCCCC)C[C@H](O)[C@@H](O)[C@H](O)[C@H](O)CO
The melting point of the first is higher: greater than 300 °C for the first, 86 to 88 °C for the second.

Compared with `CC1(C)CCc2c(N3CCCC3)nc3sc4c(NCc5cncc6ccccc56)ncnc4c3c2C1`, `Fc1cccc(Cl)c1CNc1ncnc2nsnc12` is lower in melting point: 276 to 277 °C for the first, 224 to 226 °C for the second.

Compared with `CN(C)CCCN1C(=O)c2cscc2N(C)c2ccccc21`, `Cc1c(Cl)ccc(S(=O)(=O)N(CCc2ccccc2)CC(=O)NCC(=O)O)c1Cl` is higher in melting point: 52 to 56 °C for the first, 110 °C for the second.

First: CC(C)c1nn(-c2ccc(C(F)(F)F)cn2)cc1CCCOc1c(Cl)cccc1CC(=O)O
Second: Cc1ccc(-c2c(Cl)ncnc2NS(=O)(=O)c2ccc(C(C)(C)CO)cc2)cc1
The melting point of the first is lower: 141 to 142 °C for the first, 227 to 228 °C for the second.

First: Cc1ccc(-c2ccc(C(CCC(=O)O)=NO)cc2)cc1
Second: Nc1ccc(-c2ccc(-c3nc(N)nc(N)n3)cc2)cc1
The melting point of the first is lower: 176 to 178 °C for the first, greater than 250 °C for the second.

First: COc1cc(C(=O)OC(C)C)cc(OC)c1Cc1cnc(N)nc1N
Second: COc1ccc(NC(=O)c2ccc(-c3ccc(-c4nc(N)no4)cc3C)cc2)cc1N1CCN(C)CC1
The melting point of the first is higher: 209 to 213 °C for the first, 169 to 171 °C for the second.

First: CC1(C)CC2(CC(C)(C)c3ccc(Oc4ccc(N)cc4)cc32)c2cc(Oc3ccc(N)cc3)ccc21
Second: Cc1cc2c(cc1Oc1ccc(C(=O)O)cc1)C(C)(C)CCC2(C)C
The melting point of the first is higher: 214 to 215 °C for the first, 208 to 210 °C for the second.

First: Cc1nc2c(cc1Cl)C(=O)OC2=O
Second: Cc1cc(-c2oncc2CCl)ccc1Cl
The melting point of the first is higher: 140 to 141 °C for the first, 84 to 85 °C for the second.

Compared with `Cc1cccn2ccnc12`, `COC(=O)c1cccc(NC=O)n1` is lower in melting point: 150 to 152 °C for the first, 134 to 136 °C for the second.

First: CCc1c(NC(=O)OC(C)(C)C)cccc1NC(=O)c1ccc(Br)cc1
Second: CCCCSC(=S)N1Cc2[nH]c3ccccc3c2CC1C(=O)O (configuration not stated)
The melting point of the first is higher: 181 to 183 °C for the first, 163 to 164 °C for the second.

First: CCOC(=O)c1c(CC)[nH]c(CC)c1C
Second: COc1ccc2c(c1)CC[C@@H](O)[C@@H]2n1nc(-c2c(-c3ccccc3)nn3ccccc23)ccc1=O (relative stereo)
The melting point of the first is lower: 101 to 103 °C for the first, 146 to 150 °C for the second.
